The record followed here is patent US8501813B2, “γ-secretase inhibitor” (Kabushiki Kaisha Yakult Honsha, priority 2007, dated 2013).

Where two headings read alike, the source gives them in different places.

This assay addresses γ-secretase (Homo sapiens, UniProt P49768). The assay can be described thus: Aβ secretion by C99 cells (HEK293 stably expressing APP-C99), γ-secretase inhibitory effect, Aβ ELISA of culture supernatant. The assay is classed as cell-based. The conditions noted are these: for activity at 0.3 µM / activity at 1 µM / activity at 3 µM / activity at 10 µM / activity at 0.03 µM / activity at 0.1 µM: HEK293, 24 h; for activity at 0.3 µM: exposure 0.3 μmol/L; for activity at 1 µM: exposure 1 μmol/L; for activity at 3 µM: exposure 3 μmol/L; for activity at 10 µM: exposure 10 μmol/L; for activity at 0.03 µM: exposure 0.03 μmol/L; for activity at 0.1 µM: exposure 0.1 μmol/L; for inhibition at 0.3 µM / inhibition at 10 µM: HEK293, read-out: Aβ40 inhibitory rate (in terms of the inhibitory rate, from secretion rate); for inhibition at 0.3 µM: exposure concentration 0.3 μM; for inhibition at 10 µM: exposure concentration 10 μM. The text has this: HEK293 cells (ATCC) were transfected with APP C99 pcDNA3.1 (the nucleotide sequence of its coding region is shown in SEQ ID NO: 1) (J. Biol. Chem., 2003, 278, 49448-49458). Cell strains (C99 cells) confirmed to stably express APP-C99 (artificial APP fragment that originally lacked a polypeptide portion to be cleaved by α- or β-secretase at the first stage in the two-stage reaction of Aβ production from APP) were used to study the γ-secretase inhibitory effects of four test substances (TLVM-5, TLVM-7, TLVM-8, and TLVM-9) in vitro.
In the present test, a medium used for the C99 cells was 500 mL of a Dulbecco's Modified Eagle's Medium (DMEM, Sigma-Aldrich Corp.) supplemented with 55 ml of fetal bovine serum (Biosource), 5.5 ml of MEM non-essential amino acids (Gibco), and 5.5 ml of penicillin/streptomycin (Gibco).
The C99 cells were suspended at a concentration of 5×10^4 cells/ml in the medium. The suspension was added at a concentration of 1 ml (5×10^4 cells)/well to a 24-well collagen plate (Akita Sumitomo Bakelite Co., Ltd.) and cultured for 3 days. Then, the medium in the wells was removed, and the wells were washed with a medium (1 ml/well). The medium was removed, and a fresh medium was then added thereto at a concentration of 0.4 ml/well. The cells were exposed to the test substances and positive controls and incubated for 24 hours, and the culture supernatants were collected. The positive controls used were L-685,458 (CALBIOCHEM) and Boc-Leu-Val-Met-Leu-OMe (hereinafter, referred to as LVML-1) disclosed in Example 1 of Patent Document 1 (WO03/091278). The exposure concentrations were set to four concentrations, 0.3, 1, 3, and 10 μmol/L, for all the test substances and the positive controls. The concentrations of Aβ (1-40) and Aβ (1-42) in the culture supernatants were measured using Human Amyloid β (1-40) (N) Assay Kit (L)-IBL and Human Amyloid β (1-42) (N) Assay Kit (L)-IBL (Immuno-Biological Laboratories, Co., Ltd.). The amounts of Aβ (1-40) and Aβ (1-42) secreted were calculated by subtracting the concentrations of Aβ (1-40) and Aβ (1-42) originally contained in the medium before the C99 cell inoculation, from the measured concentrations thereof, respectively. Moreover, when the Aβ secretion rate of a negative control (5% DMSO-containing medium, resulting in 1% DMSO at the final concentration) is defined as 100%, Aβ secretion rates at each concentration of the test substances and the positive controls were calculated.
The TLVM-5, TLVM-7, TLVM-8, and TLVM-9 confirmed in Example 8 to have strong inhibitory activities against γ-secretase activities were subjected to an additional experiment at low concentrations (exposure concentrations were set to three concentrations, […], for the test substances and to four concentrations, 0.1, 0.3, 1, and 3 μmol/L, for the positive control).
Moreover, Aβ secretion rates at two concentrations of the test substance that bracket the concentration at which Aβ secretion was inhibited by 50% (IC50) were used to calculate IC50 according to the following equation: IC50:10^[LOG(A/B)*(50−C)/(D−C)+LOG(B)],wherein
A: of the two points that bracket 50% inhibition, the higher concentration of the test substance,
B: of the two points that bracket 50% inhibition, the lower concentration of the test substance,
C: secretion rate (%) at the concentration B, and
D: secretion rate (%) at the concentration A.
(ELISA stands for enzyme-linked immunosorbent assay.)

The mark [1] stands for this setting: Example 8, 24 h, read-out: Aβ [(1-40) + (1-42)] secretion rate of C99 cells.
[2] abbreviates: Example 8, 24 h, read-out: Aβ (1-40) secretion rate of C99 cells.
The mark [3] stands for this setting: Example 9 (low concentrations), read-out: Aβ (1-40) secretion rate of C99 cells.
[4] abbreviates: Example 9, read-out: Aβ (1-42) secretion rate of C99 cells.
The mark [5] stands for this setting: Example 9, read-out: Aβ [(1-40) + (1-42)] secretion rate of C99 cells.
Setting [6] is: Example 9, read-out: Aβ (1-40) secretion rate of C99 cells.
The mark [7] stands for this setting: Example 8, 24 h, negative control = 100%, read-out: Aβ (1-40) secretion rate of C99 cells.
Where [8] appears, read: Example 8, 24 h, read-out: Aβ (1-42) secretion rate of C99 cells.

As for `CSCCC(NC(=O)C(NC(=O)C(CC(C)C)CC(O)C(NC(=O)OC(C)(C)C)C(C)O)C(C)C)C(=O)NCc1ccccc1` [TLVM-5, [5S-(tert-butoxycarbonylamino)-4R,6R-dihydroxy-2R-(2-methylpropyl)heptanoyl]-L-valyl-L-methionine benzylamide], the inhibition at 0.3 µM is not below 76% and the inhibition at 10 µM was not below 97%. Besides, under setting [1], the activity at 0.3 µM is 14%, the activity at 1 µM was determined as 8%, the activity at 3 µM stood at 7% and the activity at 10 µM turned out to be 6%. For the same compound, under setting [2], the activity at 1 µM is 5%, the activity at 3 µM turned out to be 4% and the activity at 10 µM is not above 3%. Further, under setting [3], the activity at 0.03 µM turned out to be 100%. Moreover, under setting [4], the activity at 0.03 µM amounted to 131%, the activity at 0.1 µM amounted to 74% and the activity at 0.3 µM is 43%. In addition, under setting [5], the activity at 0.03 µM is 101%, the activity at 0.1 µM turned out to be 40% and the activity at 0.3 µM worked out at 16%. Also, under setting [6], the activity at 0.1 µM turned out to be 39% and the activity at 0.3 µM was 15%.

Turning to `CCCCNC(=O)C(CCSC)NC(=O)C(NC(=O)C(CC(C)C)CC(O)C(NC(=O)OC(C)(C)C)C(C)O)C(C)C` [TLVM-7, [5S-(tert-butoxycarbonylamino)-4R,6R-dihydroxy-2R-(2-methylpropyl)heptanoyl]-L-valyl-L-methionine n-butylamide], the inhibition at 0.3 µM is not below 76% and the inhibition at 10 µM was not below 97%. For the same compound, the activity at 0.3 µM under setting [7] is not above 24%. Under setting [8], the activity at 0.3 µM was 15%, the activity at 1 µM was 55%, the activity at 3 µM stood at 67% and the activity at 10 µM is 0%. For the same compound, under setting [1], the activity at 0.3 µM turned out to be 23%, the activity at 1 µM is 10%, the activity at 3 µM was 4% and the activity at 10 µM is 2%. In addition, under setting [2], the activity at 1 µM worked out at 8%, the activity at 3 µM turned out to be 1% and the activity at 10 µM was not above 3%. For the same compound, under setting [3], the activity at 0.03 µM was 124%. Further, under setting [4], the activity at 0.03 µM came out at 156%, the activity at 0.1 µM was 94% and the activity at 0.3 µM stood at 33%. Moreover, under setting [5], the activity at 0.03 µM was determined as 126%, the activity at 0.1 µM came out at 44% and the activity at 0.3 µM turned out to be 14%. Under setting [6], the activity at 0.1 µM was found to be 42% and the activity at 0.3 µM was determined as 13%.

Turning to `CSCCC(NC(=O)C(NC(=O)C(CC(C)C)CC(O)C(NC(=O)OC(C)(C)C)C(C)O)C(C)C)C(=O)NC(C)c1ccccc1` [TLVM-8, [5S-(tert-butoxycarbonylamino)-4R,6R-dihydroxy-2R-(2-methylpropyl)heptanoyl]-L-valyl-L-methionine (S)-α-methylbenzylamide], the inhibition at 0.3 µM was not below 76% and the inhibition at 10 µM is not below 97%. In addition, under setting [8], the activity at 0.3 µM was 7%, the activity at 1 µM was determined as 11%, the activity at 3 µM came to 61% and the activity at 10 µM is 0%. Under setting [1], the activity at 0.3 µM was 7%, the activity at 1 µM was 1%, the activity at 3 µM came to 5% and the activity at 10 µM was found to be 1%. Also, under setting [2], the activity at 1 µM was found to be 1% and the activity at 3 µM was determined as 2%. Also, the activity at 0.03 µM under setting [3] worked out at 53%. Under setting [4], the activity at 0.03 µM turned out to be 71%, the activity at 0.1 µM worked out at 52% and the activity at 0.3 µM worked out at 33%. In addition, under setting [5], the activity at 0.03 µM was 54%, the activity at 0.1 µM worked out at 17% and the activity at 0.3 µM was 8%. Under setting [6], the activity at 0.1 µM amounted to 16% and the activity at 0.3 µM stood at 7%.

`CSCCC(NC(=O)C(NC(=O)C(CC(C)C)CC(O)C(NC(=O)OC(C)(C)C)C(C)O)C(C)C)C(=O)NCc1ccc(F)cc1` [TLVM-9, [5S-(tert-butoxycarbonylamino)-4R,6R-dihydroxy-2R-(2-methylpropyl)heptanoyl]-L-valyl-L-methionine 4-fluorobenzylamide]: the inhibition at 0.3 µM was not below 76% and the inhibition at 10 µM was not below 97%. The activity at 0.3 µM under setting [7] is not above 24%. Under setting [8], the activity at 0.3 µM came out at 2%, the activity at 1 µM was found to be 11%, the activity at 3 µM was 37% and the activity at 10 µM is 0%. Moreover, under setting [1], the activity at 0.3 µM was found to be 15%, the activity at 1 µM came out at 8%, the activity at 3 µM was 7% and the activity at 10 µM came to 3%. Moreover, under setting [2], the activity at 1 µM worked out at 8%, the activity at 3 µM is 5% and the activity at 10 µM is not above 3%. Besides, the activity at 0.03 µM under setting [3] amounted to 94%. Under setting [4], the activity at 0.03 µM was 97%, the activity at 0.1 µM was found to be 67% and the activity at 0.3 µM was found to be 49%. Further, under setting [5], the activity at 0.03 µM came out at 94%, the activity at 0.1 µM was 33% and the activity at 0.3 µM is 18%. Under setting [6], the activity at 0.1 µM is 32% and the activity at 0.3 µM was 17%.
